Converted amounts (≈) assume the structure as drawn. The source made the active and inactive calls. The calls are words filed in the database; no cut-off is given here.

Series [1] deals with Staphylococcus aureus. As to the kind of experiment: Disruption of preformed biofilm in Staphylococcus aureus ATCC29213 assessed as residual preformed biofilm at 12.5 ug/mL incubated for 24 hrs by crystal violet staining based analysis relative to control. The format is functional. As to conditions: dose 12.5 µg/ml.
The test system of series [2] is Escherichia coli. As to the kind of experiment: Antimicrobial activity against Escherichia coli ATCC25922 assessed as bacterial growth inhibition incubated for 24 hrs in presence of 100 ug/mL Ca2+ by Muller Hinton broth based dilution assay. The format is functional.
Series [3] has as its system Staphylococcus aureus. Description: In vivo antibacterial activity against Staphylococcus aureus ATCC29213 infected in cyclophosphamide immunosuppressed keratitis C57BL/6 mouse model assessed as log reduction in bacterial load at 0.5 % administered topically 4 times per day for 3 days. As to conditions: time 3 day. The format is functional.
Series [4] deals with Staphylococcus aureus. As to the kind of experiment: Antimicrobial activity against Staphylococcus aureus ATCC29213 assessed as bacterial growth inhibition incubated for 24 hrs in presence of 3220 ug/mL Na+ by Muller Hinton broth based dilution assay. Type of series: functional.
The nature of series [5]: Cytotoxicity against mouse J774.A1 cells assessed as viable cells at 50 ug/mL incubated for 24 hrs by CCK-8 assay relative to control. Type of series: toxicity, cell-based. As to conditions: at 50 µg/mL, read-out: Activity.
For series [6], the system named is Candida albicans. Description: Antimicrobial activity against Candida albicans ATCC10231 assessed as fungal growth inhibition incubated for 48 hrs in presence of 24.3 ug/mL Mg2+ by Sabouraud Dextrose broth based dilution assay. The format is functional.
For series [7], the system named is Escherichia coli. As to the kind of experiment: Disruption of preformed biofilm in Escherichia coli ATCC25922 assessed as residual preformed biofilm at […] ug/mL incubated for 24 hrs by crystal violet staining based analysis relative to control. As to conditions: dose […] microg/ml, 1.56 ug/mL. The format is functional.
Series [8] deals with Candida albicans. Description: Antimicrobial activity against Candida albicans ATCC10231 assessed as fungal killing at 8 times of MIC measured at 1 hr by time-kill kinetics assay. Type of series: functional, organism-based.
Series [9] has as its system Acinetobacter baumannii. Description: Antimicrobial activity against Acinetobacter baumannii ATCC17978 assessed as bacterial growth inhibition incubated for 24 hrs by Muller Hinton broth based dilution assay. Type of series: functional.
Series [10] is described as follows: Cytotoxicity against mouse NCTC clone 929 cells assessed as viable cells at 50 ug/mL incubated for 24 hrs by CCK-8 assay relative to control. Type of series: toxicity, cell-based. As to conditions: NCTC clone 929 (L929) cells, at 50 µg/mL, read-out: Activity. A general note: Formazan colour is commonly taken as a measure of viable cells.
Series [11] relates to Cell membrane. Description: Disruption of membrane integrity in Candida albicans ATCC10231 assessed as increase in fluorescence intensity at 1 to 8 times of MIC measured for 1 hr by SYTOX green dye based fluorescence analysis.
The test system of series [12] is Staphylococcus aureus. As to the kind of experiment: Disruption of preformed biofilm in Staphylococcus aureus ATCC29213 assessed as residual preformed biofilm at 0.39 ug/mL incubated for 24 hrs by crystal violet staining based analysis relative to control. The format is functional. As to conditions: dose 0.39 µg/ml.
Series [13] deals with Escherichia coli. As to the kind of experiment: Antimicrobial activity against Escherichia coli ATCC25922 assessed as log reduction in microbial load at 4 times of MIC measured at 1 hr by time-kill kinetics assay. Type of series: functional.
The subject of series [14] is Candida albicans. Description: Antimicrobial activity against Candida albicans CMCC98001 assessed as fungal growth inhibition incubated for 48 hrs in presence of 24.3 ug/mL […] by Sabouraud Dextrose broth based dilution assay. Type of series: functional.
The subject of series [15] is Escherichia coli. As to the kind of experiment: Antimicrobial activity against Escherichia coli ATCC25922 assessed as bacterial growth inhibition incubated for 24 hrs in presence of 24.3 ug/mL Mg2+ by Muller Hinton broth based dilution assay. The format is functional.
Series [16] relates to Staphylococcus aureus. As to the kind of experiment: Disruption of preformed biofilm in Staphylococcus aureus ATCC29213 assessed as residual preformed biofilm at 3.125 ug/mL incubated for 24 hrs by crystal violet staining based analysis relative to control. Type of series: functional. As to conditions: dose 3.125 µg/ml.
Series [17] concerns Staphylococcus aureus. Description: Antimicrobial activity against methicillin-resistant Staphylococcus aureus NCTC10442 assessed as bacterial growth inhibition incubated for 24 hrs in presence of 175.5 ug/mL K+ by Muller Hinton broth based dilution assay. Type of series: functional.
Series [18] has as its system Escherichia coli. Description: Disruption of preformed biofilm in Escherichia coli ATCC25922 assessed as residual preformed biofilm at 6.25 ug/mL incubated for 24 hrs by crystal violet staining based analysis relative to control. Type of series: functional. As to conditions: dose 6.25 µg/ml.
Series [19] has as its system Cell membrane. Description: Disruption of membrane integrity in Staphylococcus aureus ATCC29213 assessed as increase in fluorescence intensity at 1 to 8 times of MIC measured for 1 hr by SYTOX green dye based fluorescence analysis.
Series [20] relates to Acinetobacter baumannii. As to the kind of experiment: Antimicrobial activity against Acinetobacter baumannii ATCC17978 assessed as bacterial growth inhibition incubated for 24 hrs in presence of 100 ug/mL Ca2+ by Muller Hinton broth based dilution assay. The format is functional.
The subject of series [21] is Staphylococcus aureus. As to the kind of experiment: Antimicrobial activity against Staphylococcus aureus ATCC29213 assessed as bacterial killing at 1 to 8 times of MIC measured upto 24 hrs by time-kill kinetics assay. The format is functional, organism-based.
Series [22] concerns Candida albicans. As to the kind of experiment: Antimicrobial activity against Candida albicans ATCC10231 assessed as fungal killing at 8 times of MIC measured at 0.5 hr by time-kill kinetics assay. The format is functional, organism-based.
For series [23], the system named is Candida albicans. As to the kind of experiment: Antimicrobial activity against Candida albicans ATCC10231 assessed as fungal killing at 4 times of MIC measured at 0.5 hr by time-kill kinetics assay. The format is functional, organism-based.

For `CC(C)=CCN1CCCc2cc(OCCCCCCCCNC(=N)N)ccc21`, the Activity with Staphylococcus aureus [1] is 7.12%; with Escherichia coli [7], 85.82%; in the series with Cell membrane [11] it was “Dose-Dependent Effect”; in the series with Staphylococcus aureus [12], 80.76%; with Staphylococcus aureus [16] it was 29.55%; in the series with Escherichia coli [18], 18.49%. The Activity entry in the series with Cell membrane [19] and in the series with Staphylococcus aureus [21] was “Dose-Dependent Effect” throughout. Moreover, the MIC stood at 3.12 µg/mL with Escherichia coli [2]; 0.78 µg/mL in the series with Staphylococcus aureus [4]; 1.56 µg/mL in the series with Candida albicans [6]; 3.12 µg/mL (≈ 8.08 µM) in the series on Acinetobacter baumannii [9]; 0.78 µg/mL with Candida albicans [14]; 3.12 µg/mL in the series on Escherichia coli [15]. The MIC in the series with Staphylococcus aureus [17] was 0.78 µg/mL; with Acinetobacter baumannii [20] it was 3.12 µg/mL. Further, the “log(activity)” value was 6.3 in the series on Staphylococcus aureus [3] and above 3 in the series with Escherichia coli [13]. The viability at 24 h, 50 ug/mL in series [5] was determined as 31.3%; in series [10], 29.9%. For the same compound, the result with Candida albicans [8] was Active.

As for `CCCCCCCCCN1CCCc2cc(OCCCCNC(=N)N)ccc21`, the Activity with Staphylococcus aureus [1] is 0.3%; in the series with Escherichia coli [7] it was 72.32%; in the series with Cell membrane [11], “Dose-Dependent Effect”; in the series on Staphylococcus aureus [12], 81.8%; in the series with Staphylococcus aureus [16], 10.76%; in the series on Escherichia coli [18] it was 15.34%. Besides, the Activity entry in the series on Cell membrane [19] and in the series on Staphylococcus aureus [21] was “Dose-Dependent Effect” each time. Besides, the minimal inhibitory concentration (MIC) in the series on Escherichia coli [2] came to 3.12 µg/mL; in the series on Staphylococcus aureus [4], 0.78 µg/mL; in the series with Candida albicans [6], 1.56 µg/mL; in the series with Acinetobacter baumannii [9] it was 1.56 µg/mL (≈ 4.01 µM); in the series with Candida albicans [14], 0.78 µg/mL; in the series with Escherichia coli [15] it was 1.56 µg/mL. The MIC with Staphylococcus aureus [17] was 0.78 µg/mL; with Acinetobacter baumannii [20] it was 3.12 µg/mL. In addition, the “log(activity)” value was 6.6 in the series with Staphylococcus aureus [3] and above 3 in the series with Escherichia coli [13]. In addition, the figures for the viability at 24 h, 50 ug/mL in [5] and in series [10] were 42.5% and 23.7%, respectively. The outcome in the series with Candida albicans [22] and in the series on Candida albicans [23] was Active.

Usually MIC stands for the lowest concentration found to suppress growth.

The values above are taken from ChEMBL document CHEMBL5352419, “Design, synthesis, and biological evaluation of tetrahydroquinoline amphiphiles as membrane-targeting antimicrobials against pathogenic bacteria and fungi” (Eur J Med Chem, 2022).
